Read-outs that look alike come from different tables or passages of the source.
Tests used:
atheroma = experiment: NIRF / multi-wavelength fluorescence reflectance imaging (FRI) of resected aortas in rabbit atherosclerosis model; assay type: in vivo; conditions: for co-localization in atherosclerotic zones by FRI: MB 1 mg/kg 24 hours and ICG 0.5 mg/kg 0.5 hours before imaging, rabbit m464
Text: New Zealand white rabbits (3-4 kg, Charles River Laboratories, n=2) were fed a high cholesterol diet (0.3% total cholesterol, 5% peanut oil; Research Diets) and were subjected to an infrarenal abdominal aorta injury using a 3F Fogarty embolectomy balloon (Edwards Lifesciences). The 3F balloon was inserted percutaneously via the femoral artery, inflated to nominal pressure, and withdrawn under tension and repeated. After recovery from the injury, the rabbits were continued on the 0.3% high cholesterol diet, and their total serum cholesterol levels were routinely measured (Hemagen Diagnostics).
24 hours prior to atheroma imaging, 1 mg/kg concentration of MB in a phosphate buffer saline solution was administered to the rabbit subjects intravenously.
28 days after aortic injury and continuation on the high cholesterol diet, the rabbits were anesthetized and imaged using various imaging modalities. An aortic angiography (ARCADIS Varic C-arm fluoroscopy unit, Siemens) was performed on the rabbits with a manual contrast injection. After the angiography, an intravascular ultrasound (IVUS) was performed using a catheter (iLab, Boston Scientific). The IVUS catheter was used with an automated 0.5 mm/second pullback across the previously injured aortic region to assess plaque burden. Finally, the rabbit subjects underwent near-infrared fluorescence optical coherence tomography (NIRF-OCT) imaging.
Following multimodality imaging, the rabbits were euthanized, and their aortas were removed and placed in saline at 4° C. The freshly resected aortas were imaged using multi-wavelength fluorescence reflectance imaging (FRI) with fluorescein isothiocyanite (FITC) and MB having emission wavelengths of 535 nm and 700 nm, respectively. While using the FRI system (Kodak ImageStation 4000, Carestream Health), the excitation source used for triggering FITC's autofluorescence was focused around 470 nm with an exposure time of 4 seconds. MB's near-infrared fluorescence was triggered by excitation wavelengths around 630 nm for 64 seconds. […] The target-to-background ratios(TBRs) were calculated for each ROI as the mean plaque fluorescence divided by the background fluorescence measured in the adjacent normal vessel.
A concentration of 1 mg/kg MB in phosphate buffer saline solution was co-injected with a 0.5 mg/kg solution of indocyanine green (ICG) into the aorta of the rabbit subject, m464, 24 hours and 0.5 hours before imaging, respectively. Fluorescence reflectance imaging (FRI) was performed to evaluate uptake and distribution of MB and ICG. […]
The TBRs were calculated as the mean fluorescence divided by the background fluorescence of the adjacent normal aorta. […]

[1] = Half-life of MB in rabbit bloodstream from fluorescence intensity over time; assay type: in vivo; conditions: blood, intravenous, 1 mg/kg
Method: The methylene blue (MB) binding and uptake was evaluated in a rabbit model of atherosclerosis of the abdominal aorta. […] The half-life for MB in rabbit bloodstreams was measured in two subjects, m463 and m464 that had been subjected to a high cholesterol diet and the high inflammation protocol.

atherosclerotic lesions = experiment: Fluorescence microscopy, histology and RAM11 immunohistochemistry of aorta/vessel cross-sections; assay type: in vivo, rabbit
Method: A histology analysis for the aortas was then performed. The excised aortas were filled with an optimal cutting temperature compound and then snap frozen on dry ice. Using a cryostat (Leica CM3050 S), 8 μm sections of the aortas were obtained. The tissue sections were stained for hemotoxylin and eosin (H&E), Masson's Trichrome, and Oil Red 0 (ORO) histological imaging. Additionally, immunohistochemistry tests were performed for macrophages (RAM11; Dako).
Unstained tissue sections were imaged with a multi-wavelength fluorescence microscope (Nikon Eclipse 90i) for FITC and MB. FITC's autofluorescence emissions at 535 nm were excited with a 480 nm source, and MB's near-infrared fluorescent emissions at 700 nm were excited with a 630 nm Cy5.5 source.
The co-localization of MB and ICG found through FRI was also verified using high-resolution epifluorescence microscopy of fresh-frozen tissue cross-sections from the areas of interest outlined in the FRI results. […] Further, the MB binding was associated with cellular uptake when evaluating sections counterstained with a fluorescent nuclear stain.
Fluorescent microscopy (FM) was performed on a cross-section of the aorta of m464 in the fluorescein isothiocyanite (FITC) and Cy5 channels. […] The white areas represent the near-infrared fluorescence of MB under a Cy5.5 source. The grey areas represent the autofluorescence of FITC. There is little overlap between the MB and FITC areas, evidencing the unique uptake and binding profile for MB in atherosclerotic structures not targeted by other imaging agents. […] Again, the distinction between the areas of MB binding and FITC autofluorescence indicate MB's utility as an atheroma targeting agent unlike any other. Further, the TBR of MB in FIGS. 6A and 6B illustrates the robustness of the targeting profile of MB.
Moreover, FIGS. 7A-7C show FM images of an axial section of a subject's vessel including a venous thrombus after undergoing vessel injury according to the high inflammation protocol. The subject was injected with a 1 mg/kg MB concentration in a phosphate buffer saline solution 24 hours prior to imaging. […] This again evidences the unique binding pattern that MB may offer for vascular imaging.
MB binding in the aortas of the subjects was also evaluated using traditional histological stains. A tissue cross-section fluorescently imaged to evaluate MB uptake was further treated with a hemotoxylin and eosin (H&E) stain. […] Even less cellular areas were also found to have MB uptake.
Finally, the cross-section was imaged using immunohistochemical-staining techniques. The immunohistochemical stain RAM11 which is a known macrophage marker was used to cross-correlate the MB binding images. […] These areas where not limited to a specific location. For example, one area of consistent MB and RAM11 co-localization was located near the luminal side of internal elastic lamina as well as other regions of the atheroma.

[2] = healthy human volunteers, intravenous (Peter et al. 2000); cited from earlier work
[3] = phosphate buffer saline solution; cited from earlier work

SMILES: CC1(C)C(/C=C/C=C/C=C/C=C2\N(CCCCS(=O)(=O)O)c3ccc4ccccc4c3C2(C)C)=[N+](CCCCS(=O)(=O)[O-])c2ccc3ccccc3c21 [ICG, Indocyanine green]
- co-localization in atherosclerotic zones by FRI (atheroma): co-localization of MB and ICG in the atherosclerotic zones of the aorta

SMILES: CN(C)c1ccc2nc3ccc(N(C)C)cc3[s+]c2c1.[Cl-] [MB, [7-(dimethylamino)phenothiazin-3-ylidene]-dimethylazanium chloride]
- half-life ([1]; 1 phase exponential decay of fluorescence intensity, read-out: half-life of MB in bloodstream (converted)): 7.35 h
- half-life ([1]; mean of m463 and m464, read-out: average of the MB half-life in the rabbits tested (converted)): ~5.25 h
- half-life ([1]; rabbit subject m463, 1 phase exponential decay of fluorescence intensity, read-out: half-life of MB in bloodstream (converted)): 3.13 h
- half-life ([1]; rabbit subject m463, read-out: half-life of MB in bloodstream (converted)): ~3 h
- half-life ([1]; read-out: half-life of MB in bloodstream (converted)): ~7.4 h
- deposition in plaques detected by NIRF imaging (atheroma; 1 mg/kg intravenous, rabbit atherosclerosis model): can produce deposition of MB in plaques of rabbits
- co-localization in atherosclerotic zones by FRI (atheroma): co-localization of MB and ICG in the atherosclerotic zones of the aorta
- target-to-background ratios (TBRs) of aortas (atheroma; MB 1 mg/kg i.v. 24 hours before imaging, versus aortas without MB, FRI): higher TBRs than those without MB
- targeting to atheroma in FM image of aortic cross-section (atherosclerotic lesions; 1 mg/kg i.v. 24 hours before imaging, NIRF absent from normal arterial wall): highly targeted to the atheroma
- uptake in vessel with venous thrombus (FM) (atherosclerotic lesions; 1 mg/kg in phosphate buffer saline 24 hours prior to imaging): distinct spots or drops along the inner vessel walls and in the venous thrombus
- association of uptake with macrophages (RAM11 staining) (atherosclerotic lesions; aortic cross-section): associated with areas positive for macrophages in the RAM11 staining
- depth of binding in lesions (H&E histology) (atherosclerotic lesions; aortic cross-section): seen in specific regions permeating the entire depth of the lesions
- localization of uptake by high-resolution epifluorescence microscopy (atherosclerotic lesions; fresh-frozen tissue cross-sections): localize in both microscopic lesions and atherosclerotic lesions with greater than 60% stenosis
- blood half-life [2]: 5.25 h
- molar attenuation coefficient [3]: 73,000 cm^−1/M
- quantum yield [3]: 5.3%
- quenching threshold [3]: 12.5 µM
